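Test compounds were applied to cells in 96-well plates for 48 hours at 5 doses. The concentration for full growth arrest is given as TGI.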
Legend:
Test in all cases: NCI-60 cell line screen, 48 h
[1] = system: CAKI-1 renal
[2] = system: CCRF-CEM leukemia
[3] = system: DLD-1 colon
[4] = system: LXFL 529 NSCLC
[5] = system: RPMI-8226 leukemia
[6] = system: SW-620 colon
[7] = system: RXF 393 renal
[8] = system: KM20L2 colon
[9] = system: SK-MEL-5 melanoma
[10] = system: HL-60(TB) leukemia
[11] = system: HCT-15 colon
[12] = system: IGROV1 ovarian
[13] = system: SNB-75 CNS
[14] = system: NCI-H522 lung
[15] = system: SK-MEL-28 melanoma
[16] = system: OVCAR-8 ovarian
[17] = system: U251 CNS
[18] = system: UACC-257 melanoma
[19] = system: COLO 205 colon
[20] = system: SN12C renal
[21] = system: SNB-19 CNS
[22] = system: SNB-78 CNS
[23] = system: TK-10 renal
[24] = system: SR leukemia
[25] = system: SK-OV-3 ovarian
[26] = system: NCI-H460 lung
[27] = system: HT29 colon
[28] = system: KM12 colon
[29] = system: EKVX NSCLC
[30] = system: DMS 114 small cell lung
[31] = system: HOP-62 NSCLC
[32] = system: UO-31 renal
[33] = system: SF-268 CNS
[34] = system: HCT-116 colon
[35] = system: OVCAR-5 ovarian
[36] = system: OVCAR-4 ovarian
[37] = system: HOP-92 NSCLC
[38] = system: ACHN renal
[39] = system: LOX IMVI melanoma
[40] = system: HCC-2998 colon
[41] = system: 786-0 renal
[42] = system: A498 renal
[43] = system: RXF-631 renal
[44] = system: SF-539 CNS
[45] = system: NCI-H226 lung
[46] = system: A549 NSCLC
[47] = system: M14 melanoma
[48] = system: MOLT-4 leukemia
[49] = system: HOP-18 NSCLC
[50] = system: UACC-62 melanoma
[51] = system: DMS 273 small cell lung
[52] = system: MALME-3M melanoma
[53] = system: OVCAR-3 ovarian
[54] = system: SF-295 CNS
[55] = system: NCI-H23 lung
[56] = system: M19-MEL melanoma
[57] = system: K-562 leukemia
[58] = system: XF 498 CNS
[59] = system: SK-MEL-2 melanoma

Measured: TGI

CC(C)CCCC(C)[C@H]1CCC2[C@H]3C(CC[C@@]21C)[C@@]1(C)CCC=C[C@]12C[C@@H]2[C@@H]3O (stereo not given in full)
not listed: [55] | [56] | [57] | [58] | [59]
> 100 µM: all other assays above

CCCCCCCCCCCCCCCCCC(=O)O[C@H](COC(=O)CCCCCCCCCCC)COC(=O)CCCCCCCCCCCCCCC
not listed: [7] | [13] | [14] | [22] | [28] | [29] | [44] | [58] | [59]
> 100 µM: all other assays above

NC1=NS(=O)(=O)Nc2nc(-c3ccc(Cl)cc3)c(-c3ccc(Cl)cc3)nc21
not listed: [5] | [8] | [11] | [25] | [29] | [42] | [45] | [59]
> 100 µM: all other assays above

CCCCOC(=O)NC(=O)c1cn(CCCOC(=O)NCCCCCCNC(=O)OCCCn2cc(C(=O)NC(=O)OCCCC)c(=O)[nH]c2=O)c(=O)[nH]c1=O
93.1 µM: [58]
not listed: [1] | [2] | [45] | [48]
> 100 µM: all other assays above

COC(=O)N/N=C(\C)C(CN1CCCCC1)C(C1=C(O)c2ccccc2OC1)c1ccccc1 (stereo not given)
not listed: [37] | [40] | [43]
> 100 µM: all other assays above

C=C1C[C@]23CCC4C(C)(C)C(=O)CC[C@]4(C)C2C[C@H]1C(O)C3=O (stereo not given in full)
not listed: [1] | [23] | [26] | [27] | [30] | [34] | [35] | [37] | [40] | [51]
> 75 µM: all other assays above

Reference: PubChem BioAssay (NCI)
